13 compounds from patent US8362000B2, “Azetidinyl diamides as monoacylglycerol lipase inhibitors” (Janssen Pharmaceutica NV, priority 2009, dated 2013) can be followed below.

Test [1] concerns the target T1, purified wild type MGL (wt-MGLL 6H-11-313) (Homo sapiens, UniProt Q99685).
T1 sequence (Q99685 1-303): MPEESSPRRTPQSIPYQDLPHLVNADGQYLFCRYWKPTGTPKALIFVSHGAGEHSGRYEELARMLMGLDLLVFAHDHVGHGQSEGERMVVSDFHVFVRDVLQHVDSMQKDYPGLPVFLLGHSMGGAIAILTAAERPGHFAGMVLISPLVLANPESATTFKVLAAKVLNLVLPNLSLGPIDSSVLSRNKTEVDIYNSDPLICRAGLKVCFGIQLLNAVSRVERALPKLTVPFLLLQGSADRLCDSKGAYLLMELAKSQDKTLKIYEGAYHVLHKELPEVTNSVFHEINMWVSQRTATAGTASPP

Test [2] deals with CFA-induced paw radiant heat hypersensitivity. In words: CFA-induced paw radiant heat hypersensitivity. Format: in vivo, rat. Particulars: Rattus norvegicus, po, 30 mg/kg p.o., HPβCD, last time point 180 or 300 min. As to the method:
Each rat was placed in a test chamber on a warm glass surface and allowed to acclimate for approximately 10 min. A radiant thermal stimulus (beam of light) was then focused through the glass onto the plantar surface of each hind paw in turn. The thermal stimulus was automatically shut off by a photoelectric relay when the paw was moved or when the cut-off time was reached (20 sec for radiant heat at ˜5 amps). An initial (baseline) response latency to the thermal stimulus was recorded for each animal prior to the injection of complete Freund's adjuvant (CFA). […] Immediately following the post-CFA latency assessment, the indicated test compound or vehicle was administered orally.
The percent reversal (% R) of hypersensitivity was calculated in one of two different ways: 1) using group mean values or 2) using individual animal values. More specifically:
Method 2. For some compounds, the % R of hypersensitivity was calculated separately for each animal according to the following formula: % reversal=[(individual treatment response−individual CFA response)/(individual baseline response−individual CFA response)]×100. Results are given as a mean of the maximum % reversal values calculated for each individual animal.

The target of test [3] is T2, mutant MGL (Homo sapiens, UniProt Q99685, L169S/L176S).
T2 sequence (Q99685 1-303 L169S/L176S): T1 sequence (Q99685 1-303) with L169S, L176S
In words: MGL ThermoFluor assay - mutant. Particulars: read-out: MGL mutant ThermoFluor Kd. The test is classed as binding. For orientation: In DSF a fluorescence change marks the thermal transition of the protein.

Test [4] has as its target T3, MGL (Rattus norvegicus, UniProt Q8R431).
T3 construct: one g rat brain was homogenized using a Polytron homogenizer; from tissue; host or cells: rat brain homogenate
T3 sequence (Q8R431 1-303): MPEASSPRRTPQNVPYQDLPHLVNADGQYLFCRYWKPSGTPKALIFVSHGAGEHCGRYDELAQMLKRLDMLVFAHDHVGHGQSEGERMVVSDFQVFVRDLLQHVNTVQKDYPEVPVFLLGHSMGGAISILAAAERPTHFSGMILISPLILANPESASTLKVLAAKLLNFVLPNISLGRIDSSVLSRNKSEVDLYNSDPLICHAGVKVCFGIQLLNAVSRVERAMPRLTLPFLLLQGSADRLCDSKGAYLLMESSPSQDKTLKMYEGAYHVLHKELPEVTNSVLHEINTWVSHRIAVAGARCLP
Put plainly: 2-AG accumulation assay in rat brain homogenate. Format: biochemical. Particulars: rat brain homogenate, 2-AG accumulation as percent of vehicle; for 2-AG accumulation, % of vehicle control at 1 µM: compound 1 μM, read-out: Rat Brain 2AG % VehCntrl (%) @ 1 μM; for 2-AG accumulation, % of vehicle control at 0.1 µM: compound 0.1 μM, read-out: Rat Brain 2AG % VehCntrl (%) @ 0.1 μM; for 2-AG accumulation, % of vehicle control at 10 µM: compound 10 μM, read-out: Rat Brain 2AG % VehCntrl (%) @ 10 μM; for 2-AG accumulation, % of vehicle control at 0.01 µM: compound 0.01 μM, read-out: Rat Brain 2AG % VehCntrl (%) @ 0.01 μM.

[5] abbreviates: group mean values, read-out: CFA thermal hypersensitivity Method 1: peak % reversal.
Setting [6] is: individual animal values, read-out: CFA thermal hypersensitivity Method 2: peak % reversal.
[7] abbreviates: ThermoFluor thermal stability binding assay.
Setting [8] is: ThermoFluor concentration-response.

Where a chain is given by its changes, count along the chain named. Like-named read-outs stand apart in the source and are kept apart here.

In the case of `O=C(c1ccc(-c2cccc(C(F)(F)F)c2)c(F)c1)N1CC(N2CCN(C(=O)c3cscn3)CC2)C1` [Cpd 1070, 1-(1-{[2-Fluoro-3′-(trifluoromethyl)biphenyl-4-yl]carbonyl}azetidin-3-yl)-4-(1,3-thiazol-4-ylcarbonyl)piperazine], the IC50 (in general, the point on the concentration scale where inhibition reaches its midpoint) in test [1] was found to be 8 nM. The inhibition in vivo at 30 mg/kg in test [2] (setting [5]) is 25.7%; in test [2] (setting [6]) it was 23.1%. Also, the Kd (as a rule, the free concentration of one partner at which half of the binding sites on the other are occupied at equilibrium, for simple one-to-one binding) in test [3] (setting [7]) amounted to 6 nM. Besides, in test [4], the 2-AG accumulation, % of vehicle control at 1 µM was 551%.

In test [1], `O=C(c1ccc(-c2cccc(C(F)(F)F)c2)c(Cl)c1)N1CC(N2CCN(C(=O)c3cscn3)CC2)C1` [Cpd 1102, 1-(1-{[2-Chloro-3′-(trifluoromethyl)biphenyl-4-yl]carbonyl}azetidin-3-yl)-4-(1,3-thiazol-4-ylcarbonyl)piperazine] returned a 50% inhibitory concentration (IC50) of 13 nM. The inhibition in vivo at 30 mg/kg is 38% in test [2] (setting [5]) and 45.3% in test [2] (setting [6]). In addition, the dissociation constant Kd in test [3] (setting [7]) was determined as 6 nM. For the same compound, the 2-AG accumulation, % of vehicle control at 1 µM in test [4] was determined as 878%.

`O=C(c1ccc(OCc2ccccn2)c(Cl)c1)N1CC(N2CCN(C(=O)c3nccs3)CC2)C1` [Cpd 407, 1-(1-{[3-Chloro-4-(pyridine-2-ylmethoxy)phenyl]carbon-yl}azetidin-3-yl)-4-(1,3-thiazol-2-ylcarbonyl)piperazine] showed a half-maximal inhibitory concentration (IC50) in test [1] of 50.6 nM. Also, in test [2] (setting [5]), the inhibition in vivo at 30 mg/kg is 1.6%. Also, the inhibition in vivo at 30 mg/kg in test [2] (setting [6]) amounted to 1.4%. The Kd in test [3] (setting [7]) was found to be 98.8 nM. In addition, in test [4], the 2-AG accumulation, % of vehicle control at 0.1 µM was 127%; the 2-AG accumulation, % of vehicle control at 1 µM turned out to be 441%; the 2-AG accumulation, % of vehicle control at 10 µM was 743%.

For the compound `O=C(c1ccc(Oc2ncc(C(F)(F)F)cc2Cl)cc1)N1CC(N2CCN(C(=O)c3nccs3)CC2)C1` [Cpd 663], the IC50 in test [1] was 11 nM. In addition, the inhibition in vivo at 30 mg/kg in test [2] (setting [5]) is 33.9%. For the same compound, the Kd in test [3] (setting [8]) turned out to be 20 nM. Moreover, in test [4], the 2-AG accumulation, % of vehicle control at 1 µM was determined as 588%.

In test [1], `O=C(c1cscn1)N1CCN(C2CN(C(=O)c3ccc(-c4ccccc4)cc3Cl)C2)CC1` [Cpd 1221] showed a half-inhibitory concentration (IC50) of 258 nM. Besides, the inhibition in vivo at 30 mg/kg in test [2] (setting [5]) turned out to be 44.7%. Moreover, in test [2] (setting [6]), the inhibition in vivo at 30 mg/kg came out at 46.7%. Besides, the Kd in test [3] (setting [8]) worked out at 81 nM. Besides, in test [4], the 2-AG accumulation, % of vehicle control at 0.1 µM stood at 198%; the 2-AG accumulation, % of vehicle control at 1 µM stood at 198%; the 2-AG accumulation, % of vehicle control at 10 µM was found to be 522%.

On to `O=C(c1ccc2nc(-c3ccc(C(F)(F)F)cc3)oc2c1)N1CC(N2CCN(C(=O)c3nccs3)CC2)C1` [Cpd 314, 6-({3-[4-(1,3-Thiazol-2-ylcarbonyl)piperazin-1-yl]azetidin-1-yl}carbonyl)-2-[4-(trifluoromethyl)phenyl]-1,3-benzoxazole], for which, in test [1], the 50% inhibitory concentration (IC50) is less than 5 nM. In addition, the inhibition in vivo at 30 mg/kg in test [2] (setting [5]) came out at 41%. In addition, the inhibition in vivo at 30 mg/kg in test [2] (setting [6]) is 41.2%. Moreover, the Kd in test [3] (setting [7]) was determined as 39.2 nM. In addition, in test [4], the 2-AG accumulation, % of vehicle control at 0.01 µM stood at 175%; the 2-AG accumulation, % of vehicle control at 0.1 µM was found to be 237%; the 2-AG accumulation, % of vehicle control at 1 µM came out at 512%; the 2-AG accumulation, % of vehicle control at 10 µM turned out to be 553%.

Compound `Cc1c(C(=O)N2CC(N3CCN(C(=O)c4cscn4)CC3)C2)sc2cc(C(F)(F)F)ccc12` [Cpd 674, 1-(1-{[3-Methyl-6-(trifluoromethyl)-1-benzothiophen-2-yl]carbonyl}azetidin-3-yl)-4-(1,3-thiazol-4-ylcarbonyl)piperazine] returned an IC50 in test [1] of 19 nM. In addition, the inhibition in vivo at 30 mg/kg in test [2] (setting [5]) is 57.7%. Moreover, the Kd in test [3] (setting [8]) was 3 nM. Also, the 2-AG accumulation, % of vehicle control at 1 µM in test [4] is 891%.

Take `O=C(c1ccc(-c2cccc(C(F)(F)F)c2)cc1)N1CC(N2CCN(C(=O)c3cscn3)CC2)C1` [Cpd 229, 1-(1,3-Thiazol-4-ylcarbonyl)-4-(1-{[3′-(trifluoromethyl)biphenyl-4-yl]carbonyl}azetidin-3-yl)piperazine]: the IC50 in test [1] is less than 5 nM. In addition, the inhibition in vivo at 30 mg/kg in test [2] (setting [5]) came to 55.8%. In test [2] (setting [6]), the inhibition in vivo at 30 mg/kg turned out to be 56.6%. Further, the Kd in test [3] (setting [7]) turned out to be 12.5 nM. In test [4], the 2-AG accumulation, % of vehicle control at 0.1 µM amounted to 276% and the 2-AG accumulation, % of vehicle control at 1 µM came out at 552%.

In test [1], `O=C(c1ccccc1)N1CCN(C2CN(C(=O)c3ccc(-c4ccc(Cl)c(Cl)c4)cc3)C2)CC1` [Cpd 39, 1-{1-[(3′,4′-Dichlorobiphenyl-4-yl)carbonyl]azetidin-3-yl}-4-(phenylcarbonyl)piperazine] displayed an IC50 of 14.7 nM. The inhibition in vivo at 30 mg/kg in test [2] (setting [5]) came to 39.1%. The inhibition in vivo at 30 mg/kg in test [2] (setting [6]) was 39.7%. In addition, the Kd in test [3] (setting [8]) came to 25 nM. In test [4], the 2-AG accumulation, % of vehicle control at 0.1 µM was 173%; the 2-AG accumulation, % of vehicle control at 1 µM was 168%; the 2-AG accumulation, % of vehicle control at 10 µM came to 277%.

With `O=C(c1cscn1)N1CCN(C2CN(C(=O)c3ccc(-c4cccc(C(F)(F)F)c4)cc3Cl)C2)CC1` [Cpd 251, 1-(1-{[3-Chloro-3′-(trifluoromethyl)biphenyl-4-yl]carbonyl}azetidin-3-yl)-4-(1,3-thiazol-4-ylcarbonyl)piperazine], the IC50 in test [1] was 17 nM. Further, the inhibition in vivo at 30 mg/kg in test [2] (setting [5]) amounted to 35.1%. In addition, in test [2] (setting [6]), the inhibition in vivo at 30 mg/kg was found to be 38.5%. Further, in test [3] (setting [7]), the dissociation constant (Kd) turned out to be 14.3 nM. For the same compound, in test [4], the 2-AG accumulation, % of vehicle control at 0.1 µM was found to be 144%; the 2-AG accumulation, % of vehicle control at 1 µM was determined as 586%; the 2-AG accumulation, % of vehicle control at 10 µM amounted to 791%.

Compound `O=C(c1cscn1)N1CCN(C2CN(C(=O)c3ccc(-c4ccccc4)cc3F)C2)CC1` [Cpd 1108, 1-{1-[(3-Fluorobiphenyl-4-yl)carbonyl]azetidin-3-yl}-4-(1,3-thiazol-4-ylcarbonyl)piperazine] had an IC50 in test [1] of 14 nM. Also, in test [2] (setting [5]), the inhibition in vivo at 30 mg/kg was determined as 84.9%. In addition, the inhibition in vivo at 30 mg/kg in test [2] (setting [6]) is 99.2%. For the same compound, in test [3] (setting [8]), the equilibrium dissociation constant (Kd) is 63 nM. For the same compound, in test [4], the 2-AG accumulation, % of vehicle control at 0.1 µM worked out at 117%; the 2-AG accumulation, % of vehicle control at 1 µM is 204%; the 2-AG accumulation, % of vehicle control at 10 µM was determined as 456%.

Compound `O=C(c1cscn1)N1CCN(C2CN(C(=O)c3cc4ccc(C(F)(F)F)cc4s3)C2)CC1` [Cpd 337] displayed an IC50 in test [1] of 13 nM. The inhibition in vivo at 30 mg/kg in test [2] (setting [5]) came out at 14.3%. In addition, in test [2] (setting [6]), the inhibition in vivo at 30 mg/kg is 17.6%. Also, the Kd in test [3] (setting [7]) worked out at 49.8 nM. Moreover, in test [4], the 2-AG accumulation, % of vehicle control at 0.01 µM stood at 103%; the 2-AG accumulation, % of vehicle control at 0.1 µM was 166%; the 2-AG accumulation, % of vehicle control at 1 µM was 272%; the 2-AG accumulation, % of vehicle control at 10 µM was found to be 671%.

`Cc1cc(-c2cccc(C(F)(F)F)c2)ccc1C(=O)N1CC(N2CCN(C(=O)c3cscn3)CC2)C1` [Cpd 240, 1-(1-{[3-Methyl-3′-(trifluoromethyl)biphenyl-4-yl]carbonyl}azetidin-3-yl)-4-(1,3-thiazol-4-ylcarbonyl)piperazine] had an IC50 in test [1] of 50.8 nM. For the same compound, the inhibition in vivo at 30 mg/kg in test [2] (setting [5]) came out at 43%. The inhibition in vivo at 30 mg/kg in test [2] (setting [6]) was 44.4%. For the same compound, the Kd in test [3] (setting [7]) was 23.2 nM. Also, in test [4], the 2-AG accumulation, % of vehicle control at 0.1 µM stood at 184%; the 2-AG accumulation, % of vehicle control at 1 µM worked out at 538%; the 2-AG accumulation, % of vehicle control at 10 µM amounted to 639%.
